Among the data in patent EP4001279A1, “NOVEL SPIROPYRROLIDINE DERIVED ANTIVIRAL AGENTS” (Enanta Pharmaceuticals, Inc., priority 2020, dated 2022) are EC50 values, retold here.

This assay deals with 229E human corona virus (hCoV). Nature of the assay: 229E live virus assay (CPE, ATPlite readout in MRC-5 cells). Format: cell-based, hCoV-229E. Conditions: Human coronavirus 229E, MRC5, hCoV-229E live virus, MOI 0.05, ATPlite readout, run in duplicate.

For the molecule `Cc1ccc2cc(C(=O)N(C)[C@@H](CC(C)C)C(=O)N3C[C@]4(C[C@H]3C#N)C(=O)Nc3ccccc34)ccc2n1` [Example 234], the half-maximal effective concentration (EC50) was less than 0.1 µM.

`CC(C)C[C@@H](C(=O)N1C[C@]2(C[C@H]1C#N)C(=O)Nc1ccccc12)N(C)C(=O)c1ccc2ncc(F)cc2c1` [Example 235] showed an EC50 of less than 0.1 µM.

As for `CC(C)C[C@@H](C(=O)N1C[C@]2(C[C@H]1C#N)C(=O)Nc1ccccc12)N(C)C(=O)c1cc2ccc(Br)cc2cn1` [Example 236], the EC50 is less than 0.1 µM.

With `CC(C)C[C@@H](C(=O)N1C[C@]2(C[C@H]1C#N)C(=O)Nc1ccccc12)N(C)C(=O)c1ccc2ncc(C(F)(F)F)cc2c1` [Example 237], the EC50 was less than 0.1 µM.

The molecule `Cc1cc2cc(C(=O)N(C)[C@@H](CC(C)C)C(=O)N3C[C@]4(C[C@H]3C#N)C(=O)Nc3ccccc34)cc(OC(F)(F)F)c2nc1C` [Example 238] returned an EC50 of less than 0.1 µM.

`CC(C)C[C@@H](C(=O)N1C[C@]2(C[C@H]1C#N)C(=O)Nc1ccccc12)N(C)C(=O)c1cc(Cl)c2ncc(C3CC3)cc2c1` [Example 239]: the EC50 was less than 0.1 µM.

With `CC(C)C[C@@H](C(=O)N1C[C@]2(C[C@H]1C#N)C(=O)Nc1ccccc12)N(C)C(=O)c1cc(Cl)c2ncc(C(F)(F)F)cc2c1` [Example 240], the EC50 is less than 0.1 µM.

Regarding `CC(C)C[C@@H](C(=O)N1C[C@]2(C[C@H]1C#N)C(=O)Nc1ccccc12)N(C)C(=O)c1ccc2ccsc2c1` [Example 246], the EC50 is less than 0.1 µM.

`CC(C)C[C@@H](C(=O)N1C[C@]2(C[C@H]1C#N)C(=O)Nc1ccccc12)N(C)C(=O)c1cc2ccccn2n1` [Example 247] gave an EC50 of less than 0.1 µM.

`CC(C)C[C@@H](C(=O)N1C[C@]2(C[C@H]1C#N)C(=O)Nc1ccccc12)N(C)C(=O)C#Cc1ccccc1` [Example 248] gave an EC50 of less than 0.1 µM.

In the case of `COc1ccc2[nH]c(C(=O)N(C)[C@@H](CC(C)C)C(=O)N3C[C@]4(C[C@H]3C#N)C(=O)Nc3ccccc34)nc2c1` [Example 249], the EC50 was less than 0.1 µM.

`CC(C)C[C@@H](C(=O)N1C[C@]2(C[C@H]1C#N)C(=O)Nc1ccccc12)N(C)C(=O)c1nc2cc(F)ccc2[nH]1` [Example 250]: the EC50 was less than 0.1 µM.

Regarding `CC(C)C[C@@H](C(=O)N1C[C@]2(C[C@H]1C#N)C(=O)Nc1ccccc12)N(C)C(=O)c1nc2cc(Cl)c(Cl)cc2[nH]1` [Example 251], the EC50 is less than 0.1 µM.

Molecule `Cc1cccc2[nH]c(C(=O)N(C)[C@@H](CC(C)C)C(=O)N3C[C@]4(C[C@H]3C#N)C(=O)Nc3ccccc34)nc12` [Example 252] registered an EC50 of less than 0.1 µM.

`CC(C)C[C@@H](C(=O)N1C[C@]2(C[C@H]1C#N)C(=O)Nc1ccccc12)N(C)C(=O)c1cc2cccnc2cc1OC(F)F` [Example 253]: the EC50 is less than 0.1 µM.

On to `CC(C)C[C@@H](C(=O)N1C[C@]2(C[C@H]1C#N)C(=O)Nc1ccccc12)N(C)C(=O)c1cc2ccc(=O)[nH]c2cc1OC1CC1` [Example 254], for which the EC50 was less than 0.1 µM.

As to `CC(C)C[C@@H](C(=O)N1C[C@]2(C[C@H]1C#N)C(=O)Nc1ccccc12)N(C)C(=O)c1cc(Cl)c2[nH]c(C3CC3)nc2c1` [Example 256], the EC50 is less than 0.1 µM.

In the case of `CC(C)C[C@@H](C(=O)N1C[C@]2(C[C@H]1C#N)C(=O)Nc1ccccc12)N(C)C(=O)c1ccc2nc(-c3ccccc3)ccc2c1` [Example 257], the EC50 was less than 0.1 µM.

Molecule `COc1cc(C(=O)N(C)[C@@H](CC(C)C)C(=O)N2C[C@]3(C[C@H]2C#N)C(=O)Nc2ccccc23)nc2ccccc12` [Example 258] yielded an EC50 of less than 0.1 µM.

As for `Cc1cc(C)c2ccc(C(=O)N(C)[C@@H](CC(C)C)C(=O)N3C[C@]4(C[C@H]3C#N)C(=O)Nc3ccccc34)nc2c1O` [Example 259], the EC50 was less than 0.1 µM.

For `CC(C)C[C@@H](C(=O)N1C[C@]2(C[C@H]1C#N)C(=O)Nc1ccccc12)N(C)C(=O)c1cnc2ccccc2c1O` [Example 260], the EC50 was less than 0.1 µM.

With `CC(C)C[C@@H](C(=O)N1C[C@]2(C[C@H]1C#N)C(=O)Nc1ccccc12)N(C)C(=O)c1ccccc1-c1ccccc1` [Example 261], the EC50 was 0.1 to 1 µM.

`CC(C)C[C@@H](C(=O)N1C[C@]2(C[C@H]1C#N)C(=O)Nc1ccccc12)N(C)C(=O)c1cc(-c2ccccc2)ccc1Cl` [Example 262] returned an EC50 of 0.1 to 1 µM.

The molecule `CC(C)C[C@@H](C(=O)N1C[C@]2(C[C@H]1C#N)C(=O)Nc1ccccc12)N(C)C(=O)c1cccc(-c2ccc(C(F)(F)F)cc2)c1` [Example 263] yielded an EC50 of less than 0.1 µM.

In the case of `CC(C)C[C@@H](C(=O)N1C[C@]2(C[C@H]1C#N)C(=O)Nc1ccccc12)N(C)C(=O)c1cccc(-c2ccccc2F)c1` [Example 264], the EC50 was less than 0.1 µM.

`CC(C)C[C@@H](C(=O)N1C[C@]2(C[C@H]1C#N)C(=O)Nc1ccccc12)N(C)C(=O)c1cccc(-c2ccc(C#N)cc2)c1` [Example 265] showed an EC50 of 0.1 to 1 µM.

`CC(C)C[C@@H](C(=O)N1C[C@]2(C[C@H]1C#N)C(=O)Nc1ccccc12)N(C)C(=O)c1cccc(-c2cccc(Cl)c2)c1` [Example 266]: the EC50 was less than 0.1 µM.

The molecule `CC(C)C[C@@H](C(=O)N1C[C@]2(C[C@H]1C#N)C(=O)Nc1ccccc12)N(C)C(=O)c1cn(-c2ccccn2)nn1` [Example 267] returned an EC50 of less than 0.1 µM.

Molecule `CC(C)C[C@@H](C(=O)N1C[C@]2(C[C@H]1C#N)C(=O)Nc1ccccc12)N(C)C(=O)c1cnc2c(C(F)(F)F)cccc2c1` [Example 268] came in with an EC50 of less than 0.1 µM.

As to `CC(C)C[C@@H](C(=O)N1C[C@]2(C[C@H]1C#N)C(=O)Nc1ccccc12)N(C)C(=O)c1nc2c(F)cc(F)cc2[nH]1` [Example 269], the EC50 is less than 0.1 µM.

With `CC(C)C[C@@H](C(=O)N1C[C@]2(C[C@H]1C#N)C(=O)Nc1ccccc12)N(C)C(=O)c1nc2c(F)cc(F)c(F)c2[nH]1` [Example 270], the EC50 is less than 0.1 µM.

Consider `CC(C)C[C@@H](C(=O)N1C[C@]2(C[C@H]1C#N)C(=O)Nc1ccccc12)N(C)C(=O)c1ccc2c(Cl)ccnc2c1` [Example 271], for which the EC50 was less than 0.1 µM.

Regarding `CC(C)C[C@@H](C(=O)N1C[C@]2(C[C@H]1C#N)C(=O)Nc1ccccc12)N(C)C(=O)c1ccc(F)c(-c2ccccc2)c1` [Example 272], the EC50 is less than 0.1 µM.

Molecule `CC(C)C[C@@H](C(=O)N1C[C@]2(C[C@H]1C#N)C(=O)Nc1ccccc12)N(C)C(=O)c1nc2c(F)c(F)c(F)cc2[nH]1` [Example 273] showed an EC50 of less than 0.1 µM.

For `CC(C)C[C@@H](C(=O)N1C[C@]2(C[C@H]1C#N)C(=O)Nc1ccccc12)N(C)C(=O)c1ccc2nccc(Br)c2c1` [Example 274], the EC50 is less than 0.1 µM.

For `CC(C)C[C@@H](C(=O)N1C[C@]2(C[C@H]1C#N)C(=O)Nc1ccccc12)N(C)C(=O)c1cc2cccnc2cc1F` [Example 275], the 50% effective concentration (EC50) is less than 0.1 µM.

Turning to `CC(C)C[C@@H](C(=O)N1C[C@]2(C[C@H]1C#N)C(=O)Nc1ccccc12)N(C)C(=O)c1ccc2c(=O)[nH]ccc2c1` [Example 276], the EC50 was less than 0.1 µM.

In turn, `CC(C)C[C@@H](C(=O)N1C[C@]2(C[C@H]1C#N)C(=O)Nc1ccccc12)N(C)C(=O)c1ccc(-c2ccccc2)cc1` [Example 277] yielded an EC50 of less than 0.1 µM.

`CC(C)C[C@@H](C(=O)N1C[C@]2(C[C@H]1C#N)C(=O)Nc1ccccc12)N(C)C(=O)c1cccc(-c2ccccc2C#N)c1` [Example 278] yielded an EC50 of less than 0.1 µM.

On to `CC(C)C[C@@H](C(=O)N1C[C@]2(C[C@H]1C#N)C(=O)Nc1ccccc12)N(C)C(=O)c1cccc(-c2cccc(C#N)c2)c1` [Example 279], for which the EC50 was less than 0.1 µM.

Consider `CC(C)C[C@@H](C(=O)N1C[C@]2(C[C@H]1C#N)C(=O)Nc1ccccc12)N(C)C(=O)c1nc2ccccc2n1C` [Example 282], for which the EC50 was less than 0.1 µM.

Regarding `CC(C)C[C@@H](C(=O)N1C[C@]2(C[C@H]1C#N)C(=O)Nc1ccccc12)N(C)C(=O)c1cn(-c2ccc(F)cc2)nn1` [Example 283], the EC50 is less than 0.1 µM.

For the molecule `CC(C)C[C@@H](C(=O)N1C[C@]2(C[C@H]1C#N)C(=O)Nc1ccccc12)N(C)C(=O)c1cn(-c2ccc(Cl)cc2)nn1` [Example 284], the EC50 is less than 0.1 µM.

The molecule `CC(C)C[C@@H](C(=O)N1C[C@]2(C[C@H]1C#N)C(=O)Nc1ccccc12)N(C)C(=O)c1ccc2cccnc2c1O` [Example 285] displayed an EC50 of less than 0.1 µM.

The molecule `CC(C)C[C@@H](C(=O)N1C[C@]2(C[C@H]1C#N)C(=O)Nc1ccccc12)N(C)C(=O)c1cn(-c2cccc(Cl)c2)nn1` [Example 286] had an EC50 of less than 0.1 µM.

The molecule `CC(C)C[C@@H](C(=O)N1C[C@]2(C[C@H]1C#N)C(=O)Nc1ccccc12)N(C)C(=O)c1n[nH]c(-c2ccccc2)n1` [Example 288] registered an EC50 of less than 0.1 µM.

Turning to `CC(C)C[C@@H](C(=O)N1C[C@]2(C[C@H]1C#N)C(=O)Nc1ccccc12)N(C)C(=O)c1cc(F)c2nn(C)cc2c1` [Example 309], the EC50 was less than 0.1 µM.

In turn, `CC(C)C[C@@H](C(=O)N1C[C@]2(C[C@H]1C#N)C(=O)Nc1ccccc12)N(C)C(=O)c1cc(OC2CC2)c2nc(Cl)ccc2c1` [Example 310] displayed an EC50 of 0.1 to 1 µM.

Molecule `CC(C)C[C@@H](C(=O)N1C[C@]2(C[C@H]1C#N)C(=O)Nc1ccccc12)N(C)C(=O)c1cc(F)c2nn(C3CC3)cc2c1` [Example 311] registered an EC50 of less than 0.1 µM.

With `CC(C)C[C@@H](C(=O)N1C[C@]2(C[C@H]1C#N)C(=O)Nc1ccccc12)N(C)C(=O)c1cc(OC2CC2)c2ncccc2c1` [Example 312], the EC50 fell in the range of 0.1 to 1 µM.

`CC(C)C[C@@H](C(=O)N1C[C@]2(C[C@H]1C#N)C(=O)Nc1ccccc12)N(C)C(=O)c1cc(OC2CC2)n2nc(C3CC3)c(C(=O)C(F)(F)F)c2c1` [Example 313] gave an EC50 of more than 1 µM.

Regarding `CC(C)C[C@@H](C(=O)N1C[C@]2(C[C@H]1C#N)C(=O)Nc1ccccc12)N(C)C(=O)c1cc(F)c2nc(C3CC3)c(C(=O)C(F)(F)F)n2c1` [Example 314], the EC50 was less than 0.1 µM.

In the case of `CC(C)C[C@@H](C(=O)N1C[C@]2(C[C@H]1C#N)C(=O)Nc1ccccc12)N(C)C(=O)c1cc(OC2CC2)n2nc(C3CC3)cc2c1` [Example 315], the EC50 was in the range of 0.1 to 1 µM.

The molecule `CC(C)C[C@@H](C(=O)N1C[C@]2(C[C@H]1C#N)C(=O)Nc1ccccc12)N(C)C(=O)c1cc(Cl)c2nn(C3CC3)cc2c1` [Example 316] returned an EC50 of less than 0.1 µM.
